Laboratory results as given in patent US11123351B2, “Pharmaceutical formulation of 3-alpha-ethynyl-3-beta-hydroxyandrostan-17-one oxime” (priority 2017, dated 2021).
Values after ≈ are worked out from the molar mass of the structure shown.

Tests used:
[1] = Serum allopregnanolone exposure in the antagonist study; type: in vivo, human
Method: (§1) The antagonist study, with the purpose of evaluating the biological activity of the IND compound, (EudraCT 2015-004911-19) was randomized and placebo-controlled with a double-blind three-part cross-over design. Study subjects orally received: placebo (A); 3 mg of IND formulation (B); or 30 mg of IND formulation (C); followed 90 minutes later by an intravenous (i.v.) allopregnanolone injection (0.05 mg/kg) and repeated measurements of maximal saccadic eye velocity (SEV) (Saccadometer Plus, Ober Consulting Sp. z o.o, Poland) and sedation/somnolence (visual analogue scale graded from “Absence of sleepiness” to “Falling asleep) for three hours.
(§2) The IND compound and allopregnanolone were quantified by UPLC/MS/MS Waters Acquity, C18 column, and Waters XEVO-TQ-S triple quadrupole mass spectrometer. As internal standards D4-[3α-ethynyl-3β-hydroxyandrostan-17-one oxime] and D5-allopregnanolone were used, respectively. For analysis of allopregnanolone oxime-derivatization was used to increase sensitivity. Standard- and QC-samples were prepared into human blank plasma/serum. The detection limit for 3α-ethynyl-3β-hydroxyandrostan-17-one oxime was 1 ng/mL, and for allopregnanolone 0.05 ng/ml (0.15 nmol/L).

GABA-A receptor [2] = assay: Antagonist study: allopregnanolone-induced sedation (visual analogue scale); type: in vivo, human; details: responding subjects, VAS scores
Method: as §1

GABA-A receptor [3] = assay: Antagonist study: allopregnanolone-induced decrease in maximal saccadic eye velocity (SEV); type: in vivo, human; details: responding subjects, responsive period
Method: as §1

[4] = Solubility of 3α-ethynyl-3β-hydroxyandrostan-17-one oxime in aqueous media; type: physicochemical
[5] = Clinical Phase I 5 day multiple ascending dose (MAD) study, pharmacokinetics and safety; type: in vivo, human; details: for AUC increase / CMax increase: multiple dose
Source text: (§3) In total 90 eligible healthy consenting male subjects (age 18-50 years) were included in the study. The oral formulation used was a capsule containing a lipid solution of 3α-ethynyl-3β-hydroxyandrostan-17-one oxime formulated according to Example 10 above (IND formulation in the following).
(§4) The first in human single ascending dose (SAD) study (EudraCT 2015-004911-19) and the 5 day multiple ascending dose (MAD) study (EudraCT 2016-003651-30) were prospective, randomized, double-blinded and placebo-controlled and designed to assess the safety, tolerability and pharmacokinetic (PK) characteristics of single and multiple ascending oral doses of 3α-ethynyl-3β-hydroxyandrostan-17-one oxime (IND compound) in healthy male volunteers.
MAD: 50 mg once daily; 50 mg twice daily (BID), i.e. 100 mg/day; or 100 mg twice daily (BID), i.e. 200 mg/day.
as §2
(§5) Pharmacokinetic parameters were evaluated using Non-Compartmental Analysis and the software Phoenix WinNonlin® version 6.3 or later (Pharsight Corporation, U.S.A.). Dose proportionality was for the SAD study based on AUC0->∞ and Cmax, and in the MAD study on steady-state AUCτ. The accumulation ratio between the first and last dose was calculated as (steady-state AUCτ/first dose AUC0->∞). Statistical calculations were with IBM SPSS statistics (Version 24, IBM).

[6] = Clinical Phase I single ascending dose (SAD) study, pharmacokinetics and safety; type: in vivo, human
Source text: as §3, §4, §2, §5

[7] = Solubility of Compound I in different vehicles (visual inspection); type: physicochemical
Method: The sample was heated, if required to melt the vehicle, to approx. from 15° C.-80° C. and agitated by vortex or stirrer.
Addition was continued until a clear solution was not longer obtained after mixing.
Glycerol monooleate [Cithrol GMO from Croda Health Care] was melted at 50° C. […] The sample was heated and agitated by vortex.
(0.91 g). The sample was heated to approx. 40° C. and agitated by vortex.
The sample was agitated by vortex at room temperature.
The material was stirred at least 30 minutes between each addition.
Upon completed dissolution the temperature was decreased to 30° C. and the solution was filled in hard gelatin capsules of size 0. The target fill weight was 500 mg where after the capsules were capped and kept at −20° C. for 2-3 hours before storage in refrigerator.

[8] = allopregnanolone 0.05 mg/kg i.v. + placebo
[9] = day 1, 100 mg BID versus next lower dose
[10] = steady-state, day 5, 100 mg BID versus next lower dose
[11] = single dose 3 mg versus next lower dose
[12] = single dose 10 mg versus next lower dose
[13] = single dose 30 mg versus next lower dose
[14] = single dose 100 mg versus next lower dose
[15] = single dose 200 mg versus next lower dose
[16] = allopregnanolone + Compound I 3 mg oral
[17] = allopregnanolone + Compound I 30 mg oral

With `CC(=O)[C@H]1CC[C@H]2[C@@H]3CC[C@H]4C[C@H](O)CC[C@]4(C)[C@H]3CC[C@]12C` [Allopregnanolone, allopregnanolone, reference compound] the Highest serum level ([1]; first study time point after i.v. injection 0.05 mg/kg, three study occasions) was 74 to 82 nM, the concentration at 10 min ([1]; human, serum, intravenous, 0.05 mg/kg, 10 min after injection, average) was ~80 nM and the “AUC (ΔSedation)” value (GABA-A receptor [2]; [8]) was 1928 ± 404 mm × min. For the same molecule, the “AUC (ΔSEV)” value (GABA-A receptor [3]; [8]) was −3018 ± 656 deg/s × min.
With `C#C[C@]1(O)CC[C@@]2(C)C(CC[C@@H]3[C@@H]2CC[C@]2(C)/C(=N/O)CC[C@@H]32)C1` (stereo partly drawn) [Compound I, 3α-ethynyl-3β-hydroxyandrostan-17-one oxime] the Solubility ([4]; FaSSIF (fasted-state simulated intestinal fluid), fassif) was 7 µg/mL (≈ 21.2 µM), the Solubility ([4]; FeSSIF (fed-state simulated intestinal fluid), fessif) was 19 µg/mL (≈ 57.7 µM) and the Solubility ([4]; SGF (simulated gastric fluid), simulated gastric fluid) was 0.2 µg/mL (≈ 0.607 µM). For the same molecule, the Solubility ([4]; water) was 1.5 µg/mL (≈ 4.55 µM), the “Serious adverse events (SAEs) and dose-limiting toxicity” value ([5]; healthy adult males, up to 100 mg every 12 hours for 5 days) was “neither serious adverse events (SAEs) nor dose-limiting toxicity was observed” and the “Increase in AUC0->∞ when the dose was doubled” value ([5]; human, in vivo) was 1.9 times. The AUC increase [5, 9] was 1.9 fold, the CMax increase [5, 9] was 1.4 fold and the AUC increase [5, 10] was 1.9 fold. For the same molecule, the CMax increase [5, 10] was 1.6 fold, the “Serious adverse events (SAEs) and dose-limiting toxicity” value ([6]; healthy adult males, single dose up to 200 mg) was “neither serious adverse events (SAEs) nor dose-limiting toxicity was observed” and the “Dose proportionality constant β for AUC0-∞” value ([6]; human, in vivo, po, 200 mg) was 1.12. The “Dose proportionality constant β for CMax” value ([6]; human, in vivo, po, 200 mg) was 1.01, the AUC(0-inf) ([6]; male, human, in vivo, 1 mg) was 67 ng·h/mL and the Cmax ([6]; male, human, in vivo, 1 mg) was 13 ng/mL. It also gave an AUC(0-inf) ([6]; male, human, in vivo, 3 mg) of 215 ng·h/mL, a Cmax ([6]; male, human, in vivo, 3 mg) of 44 ng/mL and an AUC(0-inf) ([6]; male, human, in vivo, 10 mg) of 785 ng·h/mL. For the same molecule, the Cmax ([6]; male, human, in vivo, 10 mg) was 149 ng/mL, the AUC(0-inf) ([6]; male, human, in vivo, 30 mg) was 2560 ng·h/mL and the Cmax ([6]; male, human, in vivo, 30 mg) was 464 ng/mL. For the same molecule, the AUC(0-inf) ([6]; male, human, in vivo, 100 mg) was 11900 ng·h/mL, the Cmax ([6]; male, human, in vivo, 100 mg) was 1520 ng/mL and the AUC(0-inf) ([6]; male, human, in vivo, 200 mg) was 25800 ng·h/mL. It also gave a Cmax ([6]; male, human, in vivo, 200 mg) of 2780 ng/mL, a Tmax ([6]; male, human, in vivo, po) of 1 to 2 h and an AUC increase [6, 11] of 3.2 fold. The CMax increase [6, 11] was 3.4 fold, the AUC increase [6, 12] was 3.7 fold and the CMax increase [6, 12] was 3.4 fold. The AUC increase [6, 13] was 3.3 fold, the CMax increase [6, 13] was 3.1 fold and the AUC increase [6, 14] was 4.6 fold. The CMax increase [6, 14] was 3.3 fold, the AUC increase [6, 15] was 2.2 fold and the CMax increase [6, 15] was 1.8 fold. The “AUC (ΔSedation)” value (GABA-A receptor [2]; [16]) was 698 ± 332 mm × min, the “AUC (ΔSedation)” value (GABA-A receptor [2]; [17]) was 416 ± 469 mm × min and the “AUC (ΔSEV)” value (GABA-A receptor [3]; [16]) was −1592 ± 924 deg/s × min. For the same molecule, the “AUC (ΔSEV)” value (GABA-A receptor [3]; [17]) was −909 ± 798 deg/s × min, the “Concentration that could be dissolved” value ([7]; Capric/caprylic glyceride Imwitor 742, heating temperature 60° C.) was 20 mg/mL and the “Concentration that could be dissolved” value ([7]; Capric/caprylic glyceride Imwitor 742, heating temperature 70° C.) was 40 mg/mL. It also gave a Solubility ([7]; Example 1, Capric/caprylic glycerides, Imwitor 742, 40° C.) of 20 to 30 mg/g, a Solubility ([7]; Example 2, Glyceryl monooleate, Cithrol GMO, melted at 50° C.) of 8 mg/g and a Solubility ([7]; Example 3, Oleoyl macrogol-6 glycerides, Labrafil M1944 CS, approx. 40° C.) of 5 mg/g. It also gave a Solubility ([7]; Example 5, Propylenglycol monocaprylate type I, Capryol PGMC, room temperature) of 15 mg/g, a Solubility ([7]; Example 6, Propylenglycol monocaprylate type II, Capryol 90, room temperature) of 23 mg/g and a Solubility ([7]; Example 7, Polyoxyethylene-8 caprylic/capric glycerides, Acconon MC8-2, room temperature) of 2 mg/g. The Solubility ([7]; propylene glycol monolaurate type I (Lauroglycol FCC), oil or lipid, thermodynamic from solid, Example 4, Propylenglycol monolaurate type I, Lauroglycol FCC, room temperature, read-out: Solubility) was 6000 µg/mL (≈ 18200 µM).
